From PubChem BioAssay (NCI)
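Compound exposure: 48 hours, 5 concentrations, 96-well plates. At the GI50, growth is halved. The concentration for full growth arrest is given as TGI.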

Legend:
Assay in all cases: DTP human tumour cell line panel, 48 h
[1] = system: MDA-MB-231 breast
[2] = system: OVCAR-8 ovarian
[3] = system: SF-268 CNS
[4] = system: NCI-H460 lung
[5] = system: SN12C renal
[6] = system: PC-3 prostate
[7] = system: NCI/ADR-RES ovarian
[8] = system: DU-145 prostate
[9] = system: HOP-92 NSCLC
[10] = system: T-47D breast

Row | Structure (SMILES) | GI50 [1] | TGI [1] | GI50 [2] | TGI [2] | GI50 [3] | TGI [3] | GI50 [4] | TGI [4] | GI50 [5] | TGI [5] | GI50 [6] | TGI [6] | GI50 [7] | TGI [7] | GI50 [8] | TGI [8] | GI50 [9] | TGI [9] | GI50 [10] | TGI [10]
1 | CC(C)c1ccc(Nc2nccc(-c3cnn4ncccc34)n2)cc1 | 0.726 µM | > 17.9 µM | 0.555 µM | 3.74 µM | 0.692 µM | 4.42 µM | 0.496 µM | 4.95 µM | 0.66 µM | > 17.9 µM | 0.615 µM | > 12.3 µM | 0.584 µM | 5.27 µM | 0.809 µM | > 9.19 µM | 0.503 µM | 1.59 µM | 0.469 µM | > 6.22 µM
2 | COC(=O)C1=C(OC(=O)c2ccc(Cl)cc2)C(C(=O)OC)[C@@]2(O)[C@@H](C(=O)OC)C(c3ccccc3Cl)C[C@@H]1[C@@H]2C(=O)OC (stereo not given in full) | 4.57 µM | 17.5 µM | 2.61 µM | 12.8 µM | 5.41 µM | > 100 µM | 4.18 µM | > 100 µM | 4.22 µM | 31 µM | 37.2 µM | > 100 µM | 3.41 µM | > 100 µM | 7.46 µM | > 100 µM | 47.2 µM | > 100 µM | 9.39 µM | > 100 µM
3 | CC12CC(OC(=O)[C@]1(C)O)[C@@H]([C@]1(O)CC[C@H]3[C@@H]4C[C@H]5O[C@]56[C@@H](O)C=CC(=O)[C@]6(C)[C@H]4CC[C@@]31C)C2 (stereo not given in full) |  | 16.7 µM |  | 13.3 µM |  | 30.2 µM |  | 32.3 µM |  | 20.5 µM |  | 26.5 µM |  | 68.5 µM |  | 86.7 µM |  | 8.08 µM |  | 32.9 µM
4 | CCOC(=O)c1nc(Nc2ccc(Cl)cc2)c2ccccc2n1 | 14.1 µM | 42 µM | 12.3 µM | 28.5 µM | 10.1 µM | 25.1 µM | 9.44 µM | 23.7 µM | 11.5 µM | 27.4 µM | 11.6 µM | > 50 µM | 13.2 µM | 22.9 µM | 7.39 µM | 15.1 µM | 9.49 µM | 26.8 µM | 8.36 µM | 22.5 µM
5 | C/C=C/[C@@H]1OC(=O)C2=C[C@@H](O)[C@@H](/C=C/C)O[C@H]21 | 12.9 µM | 29.3 µM | 13.4 µM | 34.1 µM | 24.1 µM | > 82.5 µM | 25.6 µM | 63.7 µM | 3.76 µM | 12.6 µM | 13.9 µM | 28.2 µM | 19.2 µM | > 56.2 µM | 0.989 µM | 4.83 µM | 2.4 µM | 9.12 µM | 3.3 µM | 13 µM
6 | COCCNc1cc(NC(=O)N2CCCc3cc(CN4CCN(C)CC4=O)c(C=O)nc32)ncc1C#N | 44.8 µM | > 50 µM | > 50 µM | > 50 µM | > 50 µM | > 50 µM | > 50 µM | > 50 µM | > 50 µM | > 50 µM | > 50 µM | > 50 µM | > 50 µM | > 50 µM | > 50 µM | > 50 µM | 1.59 µM | 21.6 µM | 46.5 µM | > 50 µM
7 | COc1ccc(/C=C2\CCC(CN(C)C)C2=O)cc1OC (stereo not given) |  | 7.71 µM |  | 8.25 µM |  | 27.1 µM |  | 26.6 µM |  | 8.35 µM |  | 13.9 µM |  | 7.19 µM |  | 20.4 µM |  | 21 µM |  | 44.5 µM
8 | COC(=O)C(F)C(Br)C(=O)OC (stereo not given) |  | 28.3 µM |  | 12.6 µM |  | 24.4 µM |  | 39.3 µM |  | 30.9 µM |  | 10.1 µM |  | 8.93 µM |  | 27.5 µM |  | 4.96 µM |  | 6.63 µM
9 | O=C(OCCBr)c1ccc(Cl)c([N+](=O)[O-])c1 | 8.3 µM | 21.6 µM | 17.3 µM | 35.2 µM | 5.44 µM | 10.3 µM | 14.9 µM | 33.5 µM | 17.1 µM | 33.2 µM | 5.23 µM | 12.8 µM | 21.4 µM | 53.1 µM | 2.31 µM | 5.27 µM | 16 µM | 33.2 µM | 2.29 µM | 5.49 µM
10 | O=C(CN1CCN(c2ccccc2)CC1)N1CCN(c2nnc(-c3ccc(Cl)cc3)c(-c3ccc(Cl)cc3)n2)CC1 | 21.9 µM | > 100 µM | 16.3 µM | > 100 µM | 14.9 µM | > 100 µM | 7.92 µM | > 100 µM | 13 µM | > 100 µM | 7.44 µM | > 100 µM | 8.05 µM | > 100 µM | 29.2 µM | > 100 µM | 12.1 µM | 27.9 µM | 3.51 µM | 28.9 µM
11 | CC1(C)CC[C@]2(C(=O)N3CCOCC3)CC[C@]3(C)C(=CC[C@@H]4[C@@]5(C)C/C(=C/c6ccncc6)C(=O)C(C)(C)[C@@H]5CC[C@]43C)[C@@H]2C1 | 3.06 µM | 41.1 µM | 3.52 µM | > 100 µM | 6.33 µM | > 100 µM | 1.32 µM | 4.17 µM | 2.37 µM | 20.6 µM | 0.375 µM | 46.1 µM | 2.5 µM | 46.4 µM | 2.77 µM | 36.5 µM | 0.0347 µM | 11.6 µM | 0.781 µM | > 100 µM
